Laboratory results taken from patent US8883771B2, “Bivalent inhibitors of IAP proteins and therapeutic methods using the same” (The Regents of the University of Michigan, priority 2012, dated 2014).
Where two headings read alike, the source gives them in different places.

How the values were obtained:
[1] = target: cIAP1-BIR3 (residues 253-363) (Homo sapiens (Human), UniProt Q13490); experiment: Fluorescence polarization (FP) based competitive binding assay, cIAP1-BIR3; conditions: Smac-2F probe, read-out: Binding Affinities IC50 (nM) cIAP1 Protein
Description: (§1) For cIAP-1 BIR3 and cIAP-2 BIR3 assays, a fluorescently labeled Smac mimetic (Smac-2F) was used as the fluorescent probe. The Kd values of Smac-2F to cIAP-1 BIR3 and cIAP-2 BIR3 were determined by monitoring the total fluorescence polarization of mixtures composed with the fluorescent probe at a fixed concentration and proteins with increasing concentrations up to full saturation. Fluorescence polarization values were measured using the Infinite M-1000 plate reader (Tecan U.S., Research Triangle Park, N.C.) in Microfluor 2 96-well, black, round-bottom plates (Thermo Scientific). To each well, 1 nM of SMAC-2F and increasing concentrations of protein were added to a final volume of 125 μl in the assay buffer (100 mM potassium phosphate, pH 7.5, 100 μg/ml bovine γ-globulin, 0.02% sodium azide, Invitrogen, with 4% DMSO). Plates were incubated at room temperature for 1-2 hours and mixed with gentle shaking to assure equilibrium. […] Equilibrium dissociation constants (Kd) were then calculated by fitting the sigmoidal dose-dependent FP increases as a function of protein concentrations using Graphpad Prism 5.0 software (Graphpad Software, San Diego, Calif.).
(§2) Mixtures of 5 μl of the tested compounds in DMSO and 120 μl of preincubated protein/tracer complex in the assay buffer (100 mM potassium phosphate, pH 7.5, 100 μg/ml bovine γ-globulin, 0.02% sodium azide, Invitrogen) were added into assay plates and incubated at room temperature for 2 hours with gentle shaking. Final concentrations of proteins and probes were 3 nM and 1 nM, 5 nM and 1 nM for assays for cIAP-1 BIR3 and cIAP-2 BIR3, respectively. […] FP values were measured as described above. IC50 values were determined by nonlinear regression fitting of the competition curves. The Ki values of competitive inhibitors were calculated using the derived equation described previously, based upon the measured IC50 values, the Kd values of the probe to different proteins, and the concentrations of the proteins and probes in the competitive assays.

[2] = target: cIAP-2 BIR3 (residues 238-349) (Homo sapiens (Human), UniProt Q13489); experiment: Fluorescence polarization (FP) based competitive binding assay, cIAP-2 BIR3; conditions: read-out: Binding Affinities IC50 (nM) cIAP2 Protein
Description: as §1, §2

[3] = test system: MDA-MB-231 breast cancer cell line; experiment: Inhibition of cell growth in MDA-MB-231 breast cancer cell line; format: cell-based, human
[4] = target: XIAP linker-BIR2-BIR3 (residues 120-356) (Homo sapiens (Human), UniProt P98170); experiment: Fluorescence polarization (FP) based competitive binding assay, XIAP linker-BIR2-BIR3; conditions: read-out: Binding Affinities IC50 (nM) XIAP Protein
Description: as §1, §2
The FP-based assay for XIAP linker-BIR2-BIR3 protein was performed with the same procedures. In this assay, a bivalent fluorescently tagged peptidic Smac mimetic (Smac-1F) was used as the fluorescent probe whose Kd value to XIAP linker-BIR2-BIR3 was determined similarly through the saturation experiments. 0.01% of Triton X-100 was added in the assay buffer to achieve stable fluorescence and polarization value of the dimeric fluorescent probe. Final protein and probe concentrations utilized in the competitive assay were 3 nM and 1 nM, respectively.

[5] = test system: SK-OV-3 ovarian cancer cell line; experiment: Inhibition of cell growth in SK-OV-3 ovarian cancer cell line; format: cell-based, human
[6] = FP competitive assay, Smac-2F probe
[7] = FP competitive assay, Smac-1F probe
[8] = Homo sapiens, MDA-MB-231, MDA-MB-231 breast cancer cell line
[9] = Homo sapiens, SK-OV-3, SK-OV-3 ovarian cancer cell line
[10] = Homo sapiens, MDA-MB-231 breast cancer cell line
[11] = Homo sapiens, SK-OV-3 ovarian cancer cell line

Row | IC50 [3, 10] | IC50 [5, 11] | SMILES | IC50 [1] | IC50 [2, 6] | IC50 ([3]; MDA-MB-231 breast cancer cell line) | IC50 [4, 7] | IC50 ([5]; SK-OV-3 ovarian cancer cell line) | IC50 [3, 8] | IC50 [5, 9] | IC50 [4] | IC50 [2]
1 | – | – | CN[C@@H](C)C(=O)N[C@H]1CN(C(=O)NCCCCCCNC(=O)N2CC[C@H]3CC[C@@H](C(=O)N[C@H]4CCCC[C@@H]4c4ccccc4)N3C(=O)[C@@H](NC(=O)[C@H](C)NC)C2)CC[C@H]2CCC(C(=O)N[C@H]3CCCC[C@@H]3c3ccccc3)N2C1=O (stereo in doubt) [Example 40] | < 3000 nM | < 3000 nM | < 10000 nM | < 3000 nM | < 10000 nM | – | – | – | –
2 | – | – | CN[C@@H](C)C(=O)N[C@H]1CN(C(=O)NCCCCCCNC(=O)N2CC[C@H]3CC[C@@H](C(=O)N[C@H]4CCC[C@@H]4c4ccccc4)N3C(=O)[C@@H](NC(=O)[C@H](C)NC)C2)CC[C@H]2CCC(C(=O)N[C@H]3CCC[C@@H]3c3ccccc3)N2C1=O (stereo in doubt) [Example 42] | < 1000 nM | < 3000 nM | – | < 1000 nM | – | < 1000 nM | < 1000 nM | – | –
3 | – | – | CN[C@@H](C)C(=O)N[C@H]1CN(C(=O)NCCCCCCNC(=O)N2CC[C@H]3CC[C@@H](C(=O)N[C@@H]4CCC[C@H]4c4ccccc4)N3C(=O)[C@@H](NC(=O)[C@H](C)NC)C2)CC[C@H]2CCC(C(=O)N[C@@H]3CCC[C@H]3c3ccccc3)N2C1=O (stereo in doubt) [Example 43] | < 3000 nM | < 3000 nM | – | < 3000 nM | – | < 1000 nM | < 1000 nM | – | –
4 | – | – | CN[C@@H](C)C(=O)N[C@H]1CN(C(=O)NCCCCCCNC(=O)N2CC[C@H]3CC[C@@H](C(=O)N[C@@H]4CCC[C@@H]4c4ccccc4)N3C(=O)[C@@H](NC(=O)[C@H](C)NC)C2)CC[C@H]2CCC(C(=O)N[C@@H]3CCC[C@@H]3c3ccccc3)N2C1=O (stereo in doubt) [Example 44] | < 1000 nM | < 3000 nM | – | < 1000 nM | – | < 1000 nM | < 1000 nM | – | –
5 | – | – | CN[C@@H](C)C(=O)N[C@H]1CN(C(=O)Nc2ccc(NC(=O)N3CC[C@H]4CC[C@@H](C(=O)N[C@@H]5CCCc6ccccc65)N4C(=O)[C@@H](NC(=O)[C@H](C)NC)C3)cc2)CC[C@H]2CCC(C(=O)N[C@@H]3CCCc4ccccc43)N2C1=O (some centres unmarked) [Example 5] | < 100 nM | < 100 nM | – | < 10 nM | – | < 100 nM | < 100 nM | – | –
6 | < 1000 nM | < 1000 nM | CN[C@@H](C)C(=O)N[C@H]1CN(S(=O)(=O)CC/C=C/CCS(=O)(=O)N2CC[C@H]3CC[C@@H](C(=O)NC(c4ccccc4)c4ccccc4)N3C(=O)[C@@H](NC(=O)[C@H](C)NC)C2)CC[C@H]2CCC(C(=O)NC(c3ccccc3)c3ccccc3)N2C1=O (some centres unmarked) [Example 7] | < 300 nM | < 300 nM | – | < 10 nM | – | – | – | – | –
7 | < 1000 nM | < 1000 nM | CN[C@@H](C)C(=O)N[C@H]1CN(S(=O)(=O)CCC/C=C/CCCS(=O)(=O)N2CC[C@H]3CC[C@@H](C(=O)NC(c4ccccc4)c4ccccc4)N3C(=O)[C@@H](NC(=O)[C@H](C)NC)C2)CC[C@H]2CCC(C(=O)NC(c3ccccc3)c3ccccc3)N2C1=O (some centres unmarked) [Example 8] | < 100 nM | < 100 nM | – | < 10 nM | – | – | – | – | –
8 | < 1000 nM | < 1000 nM | CN[C@@H](C)C(=O)N[C@H]1CN(S(=O)(=O)CCCCCCS(=O)(=O)N2CC[C@H]3CC[C@@H](C(=O)NC(c4ccccc4)c4ccccc4)N3C(=O)[C@@H](NC(=O)[C@H](C)NC)C2)CC[C@H]2CCC(C(=O)NC(c3ccccc3)c3ccccc3)N2C1=O (some centres unmarked) [Example 9] | < 100 nM | < 100 nM | – | < 10 nM | – | – | – | – | –
9 | < 1000 nM | < 1000 nM | CN[C@@H](C)C(=O)N[C@H]1CN(S(=O)(=O)CCCCCCCCS(=O)(=O)N2CC[C@H]3CC[C@@H](C(=O)NC(c4ccccc4)c4ccccc4)N3C(=O)[C@@H](NC(=O)[C@H](C)NC)C2)CC[C@H]2CCC(C(=O)NC(c3ccccc3)c3ccccc3)N2C1=O (some centres unmarked) [Example 10] | < 100 nM | < 100 nM | – | < 10 nM | – | – | – | – | –
10 | – | – | CN[C@@H](C)C(=O)N[C@H]1CN(C(=O)Nc2ccc(Cc3ccc(NC(=O)N4CC[C@H]5CC[C@@H](C(=O)N[C@@H]6CCCc7ccccc76)N5C(=O)[C@@H](NC(=O)[C@H](C)NC)C4)cc3)cc2)CC[C@H]2CCC(C(=O)N[C@@H]3CCCc4ccccc43)N2C1=O (some centres unmarked) [Example 12] | < 100 nM | < 100 nM | – | < 10 nM | – | < 100 nM | < 100 nM | – | –
11 | – | – | CN[C@@H](C)C(=O)N[C@H]1CN(C(=O)NCCCCCCNC(=O)N2CC[C@H]3CC[C@@H](C(=O)NC(c4ccccc4)c4ccccc4)N3C(=O)[C@@H](NC(=O)[C@H](C)NC)C2)CC[C@H]2CCC(C(=O)NC(c3ccccc3)c3ccccc3)N2C1=O (some centres unmarked) [Example 13] | < 300 nM | < 300 nM | – | < 30 nM | – | < 100 nM | < 100 nM | – | –
12 | – | – | CN[C@@H](C)C(=O)N[C@H]1CN(C(=O)Nc2ccc(NC(=O)N3CC[C@H]4CC[C@@H](C(=O)N[C@H]5C[C@@H]5c5ccc(F)cc5)N4C(=O)[C@@H](NC(=O)[C@H](C)NC)C3)cc2)CC[C@H]2CC[C@@H](C(=O)N[C@H]3C[C@@H]3c3ccc(F)cc3)N2C1=O [Example 29] | < 1000 nM | < 1000 nM | – | < 1000 nM | – | < 5000 nM | < 5000 nM | – | –
13 | – | – | CN[C@@H](C)C(=O)N[C@H]1CN(C(=O)Nc2ccc(NC(=O)N3CC[C@H]4CC[C@@H](C(=O)N[C@@H]5CCC[C@H]5c5ccccc5)N4C(=O)[C@@H](NC(=O)[C@H](C)NC)C3)cc2)CC[C@H]2CC[C@@H](C(=O)N[C@@H]3CCC[C@H]3c3ccccc3)N2C1=O [Example 32] | < 3000 nM | < 3000 nM | – | < 3000 nM | – | < 1000 nM | < 1000 nM | – | –
14 | – | – | CN[C@@H](C)C(=O)N[C@H]1CN(C(=O)Nc2ccc(NC(=O)N3CC[C@H]4CC[C@@H](C(=O)N[C@H]5CCC[C@@H]5c5ccccc5)N4C(=O)[C@@H](NC(=O)[C@H](C)NC)C3)cc2)CC[C@H]2CC[C@@H](C(=O)N[C@H]3CCC[C@@H]3c3ccccc3)N2C1=O [Example 33] | < 3000 nM | < 3000 nM | – | < 3000 nM | – | < 1000 nM | < 1000 nM | – | –
15 | – | – | CN[C@@H](C)C(=O)N[C@H]1CN(C(=O)NCCCCCCNC(=O)N2CC[C@H]3CC[C@@H](C(=O)N[C@H]4C[C@H](c5ccccc5)C4)N3C(=O)[C@@H](NC(=O)[C@H](C)NC)C2)CC[C@H]2CCC(C(=O)N[C@H]3C[C@H](c4ccccc4)C3)N2C1=O (some centres unmarked) [Example 49] | < 1000 nM | < 5000 nM | – | – | – | – | – | < 1000 nM | –
16 | – | – | CN[C@@H](C)C(=O)N[C@H]1CN(C(=O)NCCCCCCNC(=O)N2CC[C@H]3CC[C@@H](C(=O)N[C@H]4C[C@@H](c5ccccc5)C4)N3C(=O)[C@@H](NC(=O)[C@H](C)NC)C2)CC[C@H]2CCC(C(=O)N[C@H]3C[C@@H](c4ccccc4)C3)N2C1=O (some centres unmarked) [Example 50] | < 1000 nM | – | – | – | – | – | – | < 1000 nM | < 1000 nM

Row | SMILES | IC50 [3, 10] | IC50 [5, 11] | IC50 [1] | IC50 [2, 6] | IC50 ([3]; MDA-MB-231 breast cancer cell line) | IC50 [4, 7] | IC50 ([5]; SK-OV-3 ovarian cancer cell line) | IC50 [3, 8] | IC50 [5, 9] | IC50 [4] | IC50 [2]
17 | CN[C@@H](C)C(=O)N[C@H]1CN(C(=O)NCCCCCCCCNC(=O)N2CC[C@H]3CC[C@@H](C(=O)N[C@@H]4CCCc5ccccc54)N3C(=O)[C@@H](NC(=O)[C@H](C)NC)C2)CC[C@H]2CCC(C(=O)N[C@@H]3CCCc4ccccc43)N2C1=O (some centres unmarked) [Example 4] | < 100 nM | < 100 nM | < 100 nM | < 100 nM | – | < 10 nM | – | – | – | – | –
18 | CN[C@@H](C)C(=O)N[C@H]1CN(C(=O)NCc2cccc(CNC(=O)N3CC[C@H]4CC[C@@H](C(=O)N[C@@H]5CCCc6ccccc65)N4C(=O)[C@@H](NC(=O)[C@H](C)NC)C3)c2)CC[C@H]2CCC(C(=O)N[C@@H]3CCCc4ccccc43)N2C1=O (some centres unmarked) [Example 6] | < 100 nM | < 100 nM | < 100 nM | < 100 nM | – | < 10 nM | – | – | – | – | –
